Here are results for 1 compound from US20230192683A1, “FUSED RING COMPOUNDS, PREPARATION METHOD THEREFOR, PHARMACEUTICAL COMPOSITIONS AND USE THEREOF” (priority 2020, published 2023).

In series [1] the target is T1, human SSTR4 (Homo sapiens, UniProt P31391).
T1 construct: expressed in transfected cells
The experiment in a line: cell-based human SSTR4 cAMP assay (agonist activity). To be noted: SSTR4, EC50 (nM), Flp-In-CHO-SSTR4 stable pool, Forskolin-stimulated cAMP. The procedure:
Purpose of test: A cell-based human SSTR4 cAMP assay was used to determine the agonistic effect of the test compound on an SSTR 4 receptor.
Cell culture and reagent preparation: cell line: Flp-In-CHO-SSTR4 stable pool; complete medium: Ham’s F-12 K + 10% FBS + 1 × penicillin-streptomycin (PS) + 600 µg/ml hygromycin B; cell seeding medium: Ham’s F-12K + 10% FBS; assay buffer: 1 × HBSS + 20 mM HEPES + 0.1%BSA + 500 uM IBMX.
The Flp-In-CHO-SSTR 4 stable pool cell line was cultured in a complete medium at 37° C., 5% CO2 until a confluency of 70% to 90%.
After TrypLE digestion, the cells were resuspended in the seeding medium and seeded in a 384-well cell culture plate (384 PE culture plate), with 7,000 cells per well, and were cultured overnight at 37° C., 5% CO2.
The cell culture plate was taken out, inverted at 200 g at room temperature for 5 s to remove the medium, then quickly filled with 15 µl of an experimental buffer to each experimental well, and centrifuged at 200 g at room temperature for 5 s.
2.5 µl of the 8x compound working solution diluted in step 3 was added to corresponding test wells, which were centrifuged at 200 g for 5 s at room temperature, and incubated at 37° C. for 10 min.
A 4 uM Forskolin working solution (8x) was prepared.
The cell plate was taken out and equilibrated to room temperature, then filled with 2.5 µl of the 8x Forskolin working solution prepared in step 6 to corresponding test wells, followed by RT at 200 g for 5 s, and left to stand at 37° C. for 30 min.
A Eu-cAMP tracer and Uliaght-anti-cAMP were freeze-thawed, the Eu-cAMP tracer was diluted 50-fold with a detection buffer, and the Uliaght-anti-cAMP was dilutd 150-fold.
10 µl of the Eu-cAMP tracer was added to all experimental wells, then 10 µl of the detection buffer was added to NC wells, and 10 µl of the Uliaght-anti-cAMP was added to the remaining experimental wells.
The reaction plate was centrifuged at 200 g for 30 s at room temperature, and after standing at 25° C. for 1 h, data was collected using Envision.
Compound EC50 was calculated using a GraphPad nonlinear fitting formula: […]
X: Compound concentration log value; Y: HTRF ratio
On the technique in general: cAMP levels reflect the balance of adenylyl cyclase and phosphodiesterase activity.

The nature of series [2]: metabolic stability in male rat liver microsomes. The settings on record: rat liver microsomes, pH 7.4. The procedure:
Metabolic degradation of a test compound was analyzed using pooled human liver microsomes and male rat liver microsomes, respectively, at 37° C.
After pre-incubation at 37° C. for 5 min, NADPH (5 mM, 60 µL) was added to initiate a reaction. A fixed volume of the reaction mixture (30 µL) was sampled into the solution at fixed time points (0, 5, 15, 30, 60 min) to quench the reaction. After centrifugation (4000 rpm, 15 min), the supernatant (100 µL) was mixed with distilled water (100 µL) and then subjected to LC-MS/MS analysis to test the amount of the compound. A half-life was calculated using a first-order reaction kinetic equation (Ct = C0 × e^-ket, T½ = Ln2/ke).
(In general: Microsomes from liver hold many membrane-bound enzymes, among them those of drug oxidation.)

Series [3] in a line: pharmacokinetic evaluation in rats after oral and intravenous administration. Format: in vivo. To be noted: Sprague-Dawley, rat, plasma, male SD rats, oral 10.0 mg/kg, intravenous 1.0 mg/kg, route and unit inferred. The procedure:
Using rats as test animals, an LC/MS/MS method was used to determine the drug concentrations in plasma at different times after oral and intravenous administration of Compound 1a and Compound 14 in the rats. The pharmacokinetic behavior of the compounds of the present invention in rats was studied, and pharmacokinetic characteristics thereof were evaluated.
For each compound, 6 healthy adult SD (Sprague-Dawley) rats, male, were divided into oral and intravenous administration groups, 3 rats in each group, purchased from Shanghai SIPPR/BK Laboratory Animal Co., Ltd., animal production license number: SCXK (Shanghai) 2008-0016.
A specific amount of the drug was weighed and dissolved in 5% dimethylacetamide (DMA) + 5% polyethylene glycol-15 hydroxystearate (solutol) + 90% saline solution to prepare a 0.2 mg/mL solution.
The SD rats were fasted overnight and were administered orally and intravenously. The oral dose was 10.0 mg/kg, and the intravenous dose was 1.0 mg/kg.
Compound 1a and Compound 14 were administered orally and intravenously to the rats. At 0.083, 0.25, 0.5, 1, 2, 4, 8, and 24 hours after administration, 0.2 mL of blood was collected from the submandibular vein or other suitable blood vessels, placed in K2-EDTA tubes, and then stored on ice. Within one hour, the plasma was separated by centrifugation at 6,800 g for 6 minutes at 2-8° C., and stored at -80° C. for LC/MS/MS analysis. The rats were fed 4 hours after administration.

In another series the test system is rat CFA pain model. The experiment in a line: multi-dose oral pharmacodynamic study in rat CFA pain model (Von Frey PWT). It counts as in vivo. The procedure: The efficacy of Compound 1a and Compound 14 in the rat CFA pain model was evaluated using a mechanical allodynia method.
SD rats, 72 males, divided into 9 groups, were purchased from Beijing Vital River Laboratory Animal Technology Co., Ltd.
The experimental animals were adaptively reared for 3 to 7 days, and 8 of them were selected as a normal control group, and the other animals were injected with 50 µL of CFA in the center of the left hind paw for modeling. 24 hours after injection, the animals were tested for paw withdrawal threshold (PWT) basal values, and were divided into groups according to the basal values, which were solvent control group, indomethacin group, Compound 1a, 10 mpk group, Compound 1a, 30 mpk group, Compound 1a, 100 mpk group, Compound 14, 3 mpk group, Compound 14, 10 mpk group, and Compound 14, 30 mpk group, with 8 animals in each group. Subsequently, the animals were weighed and administered orally according to Table 6. All the animals were tested for paw withdrawal thresholds (PWT) using Von Frey 1, 2, and 4 hours after administration to further evaluate the efficacy of the compounds of the present invention.

For series [4], the target named is T1, human SSTR4. The experiment in a line: radioligand binding assay, [125I]Somatostatin-14, CHO-K1 membranes. Here is the method: Cell membranes were then filtered and washed, and protein-bound radioactivity was measured with a suitable instrument. The Ki values of corresponding targets were calculated using a Cheng-Prusoff formula.

Marks after values point to notes of the source that are not given here.

T1 sequence (P31391 whole entry): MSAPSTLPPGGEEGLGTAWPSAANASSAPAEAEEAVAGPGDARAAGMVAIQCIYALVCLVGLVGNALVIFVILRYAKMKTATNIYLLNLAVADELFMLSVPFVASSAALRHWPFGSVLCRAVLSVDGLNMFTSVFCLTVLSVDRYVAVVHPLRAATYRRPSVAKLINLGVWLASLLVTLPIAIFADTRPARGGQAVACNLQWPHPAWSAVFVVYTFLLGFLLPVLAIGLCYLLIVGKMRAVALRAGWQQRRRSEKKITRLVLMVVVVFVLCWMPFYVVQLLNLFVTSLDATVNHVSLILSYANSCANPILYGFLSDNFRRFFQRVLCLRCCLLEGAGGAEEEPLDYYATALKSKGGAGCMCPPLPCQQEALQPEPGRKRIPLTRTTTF

One may read the EC50 as the concentration that produces a half-maximal response. The low end stands for a more potent agent, the high end for a less potent agent. What is called half-life is the time needed for the level to fall by half in the phase considered. Low readings indicate rapid decline, high ones slow decline. Broadly, the Ki is a measure of affinity in units of concentration, obtained from inhibition or displacement. Read a high Ki as lower affinity. Consider `CSc1cccc2c(C(C)(C)NC(=O)[C@H]3[C@@H]4CNC[C@@H]43)nn(C)c12` [Compound 14, (1R,5S,6R)-N-(2-(1-Methyl-7-(Methylthio)-1H-Indazol-3-yl)Prop-2-yl)-3-Azabicyclo[3.1.0]Hexane-6-Carboxamide], for which, on human SSTR4 [1], the EC50 turned out to be 0.057 nM. Besides, the half-life at 1 µM in series [2] is more than 3.11 h. The compound further had a half-life in series [3] of 2.58 ± 0.5 h. The Vd in series [3] (read-out: Apparent volume of distribution) was 7.09 ± 1.08 L/kg. The clearance in series [3] (read-out: Clearance rate) was determined as 48.7 ± 5.01 mL/min/kg. Further, the entries for the “Paw withdrawal threshold (PWT(g)) (average) 0 hours” value in the series on rat CFA pain model (3 mg/kg oral group), in the series on rat CFA pain model (10 mg/kg oral group) and with rat CFA pain model (30 mg/kg oral group) were 3.118 g, 3.118 g and 3.079 g, respectively. Also, the entries for the “Paw withdrawal threshold (PWT(g)) (average) 1 hour” value with rat CFA pain model (3 mg/kg oral), in the series with rat CFA pain model (10 mg/kg oral) and with rat CFA pain model (30 mg/kg oral) were 3.535 g, 4.155 g and 4.051 g, respectively. The “Paw withdrawal threshold (PWT(g)) (average) 2 hours” value in the series on rat CFA pain model (3 mg/kg oral) is recorded as 5.369 g; with rat CFA pain model (10 mg/kg oral), 5.789 g; in the series with rat CFA pain model (30 mg/kg oral) it was 5.683 g. The entries for the “Paw withdrawal threshold (PWT(g)) (average) 4 hours” value in the series on rat CFA pain model (3 mg/kg oral), with rat CFA pain model (10 mg/kg oral) and with rat CFA pain model (30 mg/kg oral) were 5.335 g, 7.308 ** g and 8.213 **** g, respectively. For the same compound, the “inhibition of CFA-induced mechanical hyperalgesia (in words)” value in the series with rat CFA pain model (oral 3, 10, 30 mg/kg, 4 hours after administration) is on record as “dose-dependently inhibit”. The onset dose in the series on rat CFA pain model (oral, inhibition of CFA-induced mechanical hyperalgesia) turned out to be 10 mg/kg. On human SSTR4 [4], this compound came in with an inhibitory constant (Ki) of 0.51 nM. Further, the “SSTR4 /SSTR 1” value at human SSTR4 [4] (ratio of binding Ki values, selectivity) came out at 879.5.
